Measured values: patent publication EP4714953A1, “MELANOCORTIN 2-TYPE RECEPTOR ANTAGONIST” (Scohia Pharma, Inc., priority 2023, dated 2024)

These compounds were tested against T1, human MC2R (Homo sapiens, UniProt Q01718) (assay: Measurement of human MC2R inhibitory activity using intracellular cAMP concentration as an indicator). Details: test compound at 1 µM; GeneBLAzer MC2R-CRE-bla CHO-K1 cells; ACTH (Human 1-24) final concentration 3 pM; intracellular cAMP by HTRF; read-out: MC2R inhibition rate (% of inhibition).
T1 construct: host or cells: GeneBLAzer MC2R-CRE-bla CHO-K1 cells
T1 sequence (Q01718 whole entry): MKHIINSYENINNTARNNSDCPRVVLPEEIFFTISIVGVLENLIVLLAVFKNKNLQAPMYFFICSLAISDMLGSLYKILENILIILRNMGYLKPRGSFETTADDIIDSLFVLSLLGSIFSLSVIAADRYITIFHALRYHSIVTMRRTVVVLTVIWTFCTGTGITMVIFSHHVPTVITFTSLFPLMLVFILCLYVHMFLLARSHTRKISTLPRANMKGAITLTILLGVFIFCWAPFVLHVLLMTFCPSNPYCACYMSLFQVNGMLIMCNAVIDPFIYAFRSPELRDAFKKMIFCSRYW
T1 sequence (Q8TCY5 whole entry partner): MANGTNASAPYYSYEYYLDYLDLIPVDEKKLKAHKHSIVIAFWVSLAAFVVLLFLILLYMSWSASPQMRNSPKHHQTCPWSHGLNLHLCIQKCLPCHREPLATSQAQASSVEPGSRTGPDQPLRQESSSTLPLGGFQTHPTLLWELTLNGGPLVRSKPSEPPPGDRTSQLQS
Assay type: cell-based
Protocol: Experimental Example 1: Measurement of human MC2R inhibitory activity using intracellular cAMP concentration as an indicator
GeneBLAzer MC2R-CRE-bla CHO-K1 cells (Thermo Fisher Scientific) that had been cryopreserved in advance were thawed and suspended in a medium [Dulbecco's Modified Eagle Medium (Thermo Fisher Scientific) containing fetal bovine serum (10% (v/v), HyClone Laboratories), Non-Essential Amino Acids Solution (1/100 (w/w), Thermo Fisher Scientific), HEPES (25 mM, Thermo Fisher Scientific), Penicillin/Streptomycin (1/100 (w/w), Fujifilm Wako)]. After centrifuging the cell suspension, the supernatant was removed, the cells were suspended in D-PBS(-) (Fujifilm Wako), and the supernatant was removed again after centrifugation. The cells were resuspended in an assay buffer [Hank's Balanced Salt Solution (Thermo Fisher Scientific) containing HEPES pH 7.5 (10 mM, Thermo Fisher Scientific), fatty acid-free bovine serum albumin (0.01% (w/v), Sigma), IBMX (500 µM, Fujifilm Wako)] and added to a 384-well white plate (Greiner) at 1,500 cells/well. Then, the test compound prepared using the assay buffer was added, and after standing for 20 min, an assay buffer containing ACTH (Human 1-24) (Peptide Institute) was added (ACTH final concentration, 3 pM). After standing at room temperature for 30 min, the intracellular cAMP level was measured using cAMP Gs HiRange kit HTRF (PerkinElmer). The inhibition rate (%) of the compound against MC2R was calculated using the following formula. Inhibition rate (%) = […] [formula] • A: cAMP concentration calculated from wells containing 3 pM ACTH (1-24) • B: cAMP concentration calculated from wells without addition of 3 pM ACTH (1-24) • C: cAMP concentration calculated from wells containing 3 pM ACTH (1-24) and test compound at concentration determined in advance

`CCOc1ncccc1-c1ccc(N2C[C@H]3CN(c4ccc(Cl)cc4C(F)(F)F)C(=O)N3C[C@H]2CC)c(C(=O)NC[C@H]2CCN2C(=O)OC(C)(C)C)n1` [Example 43, tert-butyl (2R)-2-[[[3-[(6R,8aS)-2-[4-chloro-2-(trifluoromethyl)phenyl]-6-ethyl-3-oxo-5,6,8,8a-tetrahydro-1H-imidazo[1,5-a]pyrazin-7-yl]-6-(2-ethoxypyridin-3-yl)pyridine-2-carbonyl]amino]methyl]azetidine-1-carboxylate] and `CCOc1ncccc1-c1ccc(N2C[C@H]3CN(c4ccc(Cl)cc4C(F)(F)F)C(=O)N3C[C@H]2CC)c(C(=O)NC[C@@H]2CCN2C(=O)OC(C)(C)C)n1` [Example 45, tert-butyl (2S)-2-[[[3-[(6R,8aS)-2-[4-chloro-2-(trifluoromethyl)phenyl]-6-ethyl-3-oxo-5,6,8,8a-tetrahydro-1H-imidazo[1,5-a]pyrazin-7-yl]-6-(2-ethoxypyridin-3-yl)pyridine-2-carbonyl]amino]methyl]azetidine-1-carboxylate] are the same in inhibition at 1 µM: 100% for the first, 100% for the second.

`CCOc1ncccc1-c1ccc(N2C[C@H]3CN(c4ccc(Cl)cc4C(F)(F)F)C(=O)N3C[C@H]2CC)c(C(=O)NC[C@H]2CCN2)n1` [Example 44, 3-[(6R,8aS)-2-[4-chloro-2-(trifluoromethyl)phenyl]-6-ethyl-3-oxo-5,6,8,8a-tetrahydro-1H-imidazo[1,5-a]pyrazin-7-yl]-N-[[(2R)-azetidin-2-yl]methyl]-6-(2-ethoxypyridin-3-yl)pyridine-2-carboxamide] and `CCOc1ncccc1-c1ccc(N2C[C@H]3CN(c4ccc(Cl)cc4C(F)(F)F)C(=O)N3C[C@H]2CC)c(C(=O)NC[C@@H]2CCN2)n1` [Example 46, 3-[(6R,8aS)-2-[4-chloro-2-(trifluoromethyl)phenyl]-6-ethyl-3-oxo-5,6,8,8a-tetrahydro-1H-imidazo[1,5-a]pyrazin-7-yl]-N-[[(2S)-azetidin-2-yl]methyl]-6-(2-ethoxypyridin-3-yl)pyridine-2-carboxamide] are the same in inhibition at 1 µM: 100% for the first, 100% for the second.

`CCOc1ncccc1-c1ccc(N2C[C@H]3CN(c4ccc(Cl)cc4C(F)(F)F)C(=O)N3C[C@H]2CC)c(C(=O)N[C@H]2CCNC2=O)n1` [Example 48, 3-[(6R,8aS)-2-[4-chloro-2-(trifluoromethyl)phenyl]-6-ethyl-3-oxo-5,6,8,8a-tetrahydro-1H-imidazo[1,5-a]pyrazin-7-yl]-6-(2-ethoxypyridin-3-yl)-N-[(3S)-2-oxopyrrolidin-3-yl]pyridine-2-carboxamide] and `CCOc1ncccc1-c1ccc(N2C[C@H]3CN(c4ccc(Cl)cc4C(F)(F)F)C(=O)N3C[C@H]2CC)c(C(=O)N[C@H]2CC(=O)N(C)C2)n1` [Example 50, 3-[(6R,8aS)-2-[4-chloro-2-(trifluoromethyl)phenyl]-6-ethyl-3-oxo-5,6,8,8a-tetrahydro-1H-imidazo[1,5-a]pyrazin-7-yl]-6-(2-ethoxypyridin-3-yl)-N-[(3S)-1-methyl-5-oxopyrrolidin-3-yl]pyridine-2-carboxamide] are the same in inhibition at 1 µM: 100% for the first, 100% for the second.

`CCOc1ncccc1-c1ccc(N2C[C@H]3CN(c4ccc(F)cc4C(F)(F)F)C(=O)N3C[C@H]2CC)c(C(=O)N[C@H]2CNC(=O)C2)n1` [Example 51, 3-[(6R,8aS)-6-ethyl-2-[4-fluoro-2-(trifluoromethyl)phenyl]-3-oxo-5,6,8,8a-tetrahydro-1H-imidazo[1,5-a]pyrazin-7-yl]-6-(2-ethoxypyridin-3-yl)-N-[(3R)-5-oxopyrrolidin-3-yl]pyridine-2-carboxamide] and `CCOc1ncccc1-c1ccc(N2C[C@H]3CN(c4ccc(F)cc4C(F)(F)F)C(=O)N3C[C@H]2CC)c(C(=O)N[C@@H]2CC(=O)N(C)C2)n1` [Example 52, 3-[(6R,8aS)-6-ethyl-2-[4-fluoro-2-(trifluoromethyl)phenyl]-3-oxo-5,6,8,8a-tetrahydro-1H-imidazo[1,5-a]pyrazin-7-yl]-6-(2-ethoxypyridin-3-yl)-N-[(3R)-1-methyl-5-oxopyrrolidin-3-yl]pyridine-2-carboxamide] are the same in inhibition at 1 µM: 100% for the first, 100% for the second.

`CCOc1ncccc1-c1ccc(N2C[C@H]3CN(c4ccc(Cl)cc4C#N)C(=O)N3C[C@H]2CC)c(C(=O)N[C@H]2CNC(=O)C2)n1` [Example 53, 3-[(6R,8aS)-2-(4-chloro-2-cyanophenyl)-6-ethyl-3-oxo-5,6,8,8a-tetrahydro-1H-imidazo[1,5-a]pyrazin-7-yl]-6-(2-ethoxypyridin-3-yl)-N-[(3R)-5-oxopyrrolidin-3-yl]pyridine-2-carboxamide] and `CCOc1ncccc1-c1ccc(N2C[C@H]3CN(c4ccc(F)cc4C#N)C(=O)N3C[C@H]2CC)c(C(=O)N[C@H]2CNC(=O)C2)n1` [Example 55, 3-[(6R,8aS)-2-(2-cyano-4-fluorophenyl)-6-ethyl-3-oxo-5,6,8,8a-tetrahydro-1H-imidazo[1,5-a]pyrazin-7-yl]-6-(2-ethoxypyridin-3-yl)-N-[(3R)-5-oxopyrrolidin-3-yl]pyridine-2-carboxamide] are the same in inhibition at 1 µM: 100% for the first, 100% for the second.

`CCOc1ncccc1-c1ccc(N2C[C@H]3CN(c4ccc(Cl)cc4C#N)C(=O)N3C[C@H]2CC)c(C(=O)N[C@@H]2CC(=O)N(C)C2)n1` [Example 54, 3-[(6R,8aS)-2-(4-chloro-2-cyanophenyl)-6-ethyl-3-oxo-5,6,8,8a-tetrahydro-1H-imidazo[1,5-a]pyrazin-7-yl]-6-(2-ethoxypyridin-3-yl)-N-[(3R)-1-methyl-5-oxopyrrolidin-3-yl]pyridine-2-carboxamide] and `CCOc1ncccc1-c1ccc(N2C[C@H]3CN(c4ccc(F)cc4C#N)C(=O)N3C[C@H]2CC)c(C(=O)N[C@@H]2CC(=O)N(C)C2)n1` [Example 58, 3-[(6R,8aS)-2-(2-cyano-4-fluorophenyl)-6-ethyl-3-oxo-5,6,8,8a-tetrahydro-1H-imidazo[1,5-a]pyrazin-7-yl]-6-(2-ethoxypyridin-3-yl)-N-[(3R)-1-methyl-5-oxopyrrolidin-3-yl]pyridine-2-carboxamide] are the same in inhibition at 1 µM: 100% for the first, 100% for the second.

`CCOc1ncccc1-c1ccc(N2C[C@H]3CN(c4ccc(C(F)(F)F)cc4C#N)C(=O)N3C[C@H]2CC)c(C(=O)N[C@H]2CNC(=O)C2)n1` [Example 56, 3-[(6R,8aS)-2-[2-cyano-4-(trifluoromethyl)phenyl]-6-ethyl-3-oxo-5,6,8,8a-tetrahydro-1H-imidazo[1,5-a]pyrazin-7-yl]-6-(2-ethoxypyridin-3-yl)-N-[(3R)-5-oxopyrrolidin-3-yl]pyridine-2-carboxamide] and `CCOc1ncccc1-c1ccc(N2C[C@H]3CN(c4ccc(C(F)(F)F)cc4C#N)C(=O)N3C[C@H]2CC)c(C(=O)N[C@@H]2CC(=O)N(C)C2)n1` [Example 57, 3-[(6R,8aS)-2-[2-cyano-4-(trifluoromethyl)phenyl]-6-ethyl-3-oxo-5,6,8,8a-tetrahydro-1H-imidazo[1,5-a]pyrazin-7-yl]-6-(2-ethoxypyridin-3-yl)-N-[(3R)-1-methyl-5-oxopyrrolidin-3-yl]pyridine-2-carboxamide] are the same in inhibition at 1 µM: 100% for the first, 100% for the second.

Compared with `CCOc1ncccc1-c1ccc(N2C[C@H]3CN(C4(C(F)(F)F)CC4)C(=O)N3C[C@H]2CC)c(C(=O)N[C@@H]2CC(=O)N(C)C2)n1` [Example 59, 3-[(6R,8aS)-6-ethyl-3-oxo-2-[1-(trifluoromethyl)cyclopropyl]-5,6,8,8a-tetrahydro-1H-imidazo[1,5-a]pyrazin-7-yl]-6-(2-ethoxy-3-pyridinyl)-N-[(3R)-1-methyl-5-oxopyrrolidin-3-yl]pyridine-2-carboxamide], `CCOc1ccccc1-c1ccc(N2C[C@H]3CN(C4(C(F)(F)F)CC4)C(=O)N3C[C@H]2CC)c(C(=O)N[C@@H]2CC(=O)N(C)C2)n1` [Example 62, 3-[(6R,8aS)-6-ethyl-3-oxo-2-[1-(trifluoromethyl)cyclopropyl]-5,6,8,8a-tetrahydro-1H-imidazo[1,5-a]pyrazin-7-yl]-6-(2-ethoxyphenyl)-N-[(3R)-1-methyl-5-oxopyrrolidin-3-yl]pyridine-2-carboxamide] is higher in inhibition at 1 µM: 87% for the first, 98% for the second.

`CCOc1ncccc1-c1ccc(N2C[C@H]3CN(c4ccc(Cl)cc4C(F)(F)F)C(=O)N3C[C@H]2C)c(C(=O)N[C@@H]2CC(=O)N(C)C2)n1` [Example 60, 3-[(6R,8aS)-2-[4-chloro-2-(trifluoromethyl)phenyl]-6-methyl-3-oxo-5,6,8,8a-tetrahydro-1H-imidazo[1,5-a]pyrazin-7-yl]-6-(2-ethoxy-3-pyridinyl)-N-[(3R)-1-methyl-5-oxopyrrolidin-3-yl]pyridine-2-carboxamide] and `COc1ncccc1-c1ccc(N2C[C@H]3CN(c4ccc(Cl)cc4C(F)(F)F)C(=O)N3C[C@H]2C)c(C(=O)N[C@@H]2CC(=O)N(C)C2)n1` [Example 61, 3-[(6R,8aS)-2-[4-chloro-2-(trifluoromethyl)phenyl]-6-methyl-3-oxo-5,6,8,8a-tetrahydro-1H-imidazo[1,5-a]pyrazin-7-yl]-6-(2-methoxy-3-pyridinyl)-N-[(3R)-1-methyl-5-oxopyrrolidin-3-yl]pyridine-2-carboxamide] are the same in inhibition at 1 µM: 97% for the first, 97% for the second.
